Like-named read-outs stand apart in the source and are kept apart here. Where a SMILES comes first, the peptide text is derived from it. Bridges are numbered along the chain shown (N, C = ends). Where no end group is shown, it is not given here.
Key:
[1] = biological target: T1, adenylyl cyclase, ROS 17/2 cells (Rattus norvegicus, UniProt P25961); assay: Adenylyl cyclase stimulation, [3H]-cyclic AMP production in ROS 17/2 cells; format: cell-based; conditions: ROS cell line
T1 sequence (P25961 27-591): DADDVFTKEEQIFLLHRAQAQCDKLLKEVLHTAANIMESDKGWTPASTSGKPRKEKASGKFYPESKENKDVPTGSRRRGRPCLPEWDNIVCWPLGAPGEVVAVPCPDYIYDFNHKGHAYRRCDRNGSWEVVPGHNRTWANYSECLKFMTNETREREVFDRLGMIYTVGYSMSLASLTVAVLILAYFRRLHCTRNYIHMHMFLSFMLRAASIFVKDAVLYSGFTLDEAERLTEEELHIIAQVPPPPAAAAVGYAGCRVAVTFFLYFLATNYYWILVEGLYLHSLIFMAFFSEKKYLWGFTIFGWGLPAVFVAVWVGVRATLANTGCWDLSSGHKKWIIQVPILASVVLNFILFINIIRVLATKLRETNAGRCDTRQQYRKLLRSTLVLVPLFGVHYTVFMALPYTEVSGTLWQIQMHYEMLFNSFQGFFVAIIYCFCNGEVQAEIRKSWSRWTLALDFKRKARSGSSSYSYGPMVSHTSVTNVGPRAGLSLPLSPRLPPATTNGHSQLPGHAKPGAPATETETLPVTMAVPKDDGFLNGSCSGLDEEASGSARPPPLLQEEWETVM

[2] = biological target: T1, adenylyl cyclase, ROS 17/2 cells; conditions: previously reported, cited from earlier work
[3] = test system: anesthetized female Sprague-Dawley rats; assay: Hypotensive effect, tail artery pressure in anaesthetized rats
Procedure: Female Sprague-Dawley rats (weighing over 290 g) were anaesthetized with intraperitoneally injected sodium pentobarbital (65 mg/kg body weight). Rectal temperature was monitored with a YS1402 thermistor (Yellow Springs Instrument Co., Inc. Yellow Springs, Ohio) and maintained between 36.0 and 38.5° C. throughout the experiment. Ear pinna temperature was also monitored using a YSi banjo thermistor. The tail artery was exposed to cannulated with a Jelco 25-gIV catheter (Johnson and Johnson Medical Inc., Arlington, Tex.) and connected to a Statham pressure transducer, the signals from which were recorded digitally with a Biopac Systems MP100 Monitor (Harvard Instruments, Saint Laurent, QC, Canada). For intravenous injection of PTH or one of its fragments, a femoral vein was also exposed. After surgery, the rat was allowed to stabilize for 8 min after which PTH or one of its fragments (dissolved in acidified saline containing 0.001 N HCl) was injected into the femoral vein or under the skin of the abdomen. Data were collected for 12 min after intravenous injection or for 22 min after subcutaneous injection.

[4] = test system: ovariectomized (OVX) Sprague-Dawley rats; assay: Anabolic activity in ovariectomized rat model, injections from 2nd to 8th week after OVX; format: in vivo; conditions: 0.6 nmole/100 g s.c., 36 injections, weeks 2-8 after OVX
Source text: A full description of the protocol is given in Rixon et al, J. Bone & Mineral Research 9, 1179-1189, 1994 and Whitfield et al Calcif. Tissue Int. 58, 81-87, 1996 incorporated herein by reference. Normal, Sham-OVX (ovariectomized), and OVX Sprague-Dawley rats (3 months-old; 255-260 g) were purchased from
Charles River Laboratories (St. Constant, QC). The rats were randomized into groups of 8 animals which received Purina rat chow and water ad libitum. There were no unscheduled deaths. The animals received 6, once-daily subcutaneous injections/week starting at the end of the second week after OVX, and ending at the end of the 8th week after OVX (i.e., 36 injections). Eight Sham-OVX and 8 OVX controls rats received 36 injections of vehicle (0.15 M NaCl containing 0.001N HCl) while 8 OVX rats received 0.6 nmole of fragment in vehicle/100 g of body weight). At the end of the 8th week after OVX, femurs were removed isolated, cleaned, and cut in half at mid-diaphysis and the proximal half was discarded. After removing the epiphysis, each half-femur was split lengthwise into two parts and the bone marrow was flushed out.
The bone-building potencies of the fragments were assessed from the changes in the mean thicknesses (area/perimeter) of the trabeculae in the distal half-femurs from the variously treated animals. To measure mean trabecular thickness, the two demineralized half-femurs from each rat were dehydrated and embedded in paraffin. Longitudinal, 10-μm sections from the middle plane of each bone were cut and then strained with Sanderson's rapid bone stain (Surgipath Medical Industries, Inc., Winnipeg, MB, Canada). The mean trabecular thickness was measured using a M4 imaging system and bone morphometric software from Imaging Research Inc., (St. Catherines, ON, Canada).
The results are further presented in the form of a bar graph in FIG. 7.

[5] = test system: ovariectomized (OVX) rats with severely depleted trabecular bone; assay: Bone restoration in OVX rats with severely depleted trabecular bone, treatment from 9 weeks after OVX; format: in vivo, rat; conditions: 0.6 nmole/100 g once daily for 6 weeks, started 9 weeks after OVX
Source text: Doses were based upon dose-response data on hPTH(1-31)-NH2. […] By the end of the 9th week they had lost about 75% of their femoral trabecular bone mass. […] The fragment could also stimulate trabecular bone growth in much older rates. […] Accordingly, the dosage of 0.6 nmole/100 g of body weight was used in further tests.
In this second example of bone restoration, the abilities of the lactam fragments to restore severely depleted trabecular bone are compared. In this experiment, the 6-week program of once-daily injections of 0.6 nmole of peptide/100 g of body weight of young sexually mature rats was delayed until the end of the 9th week after OVX. At this time, 75% of their trabecular bone had been lost.

CC[C@H](C)[C@H](NC(=O)[C@H](CCC(=O)O)NC(=O)[C@H](CO)NC(=O)[C@@H](NC(=O)[C@@H](N)CO)C(C)C)C(=O)N[C@@H](CCC(N)=O)C(=O)N[C@@H](CC(C)C)C(=O)N[C@@H](CCSC)C(=O)N[C@@H](Cc1c[nH]cn1)C(=O)N[C@@H](CC(N)=O)C(=O)N[C@@H](CC(C)C)C(=O)NCC(=O)N[C@@H](CCCCN)C(=O)N[C@@H](Cc1c[nH]cn1)C(=O)N[C@@H](CC(C)C)C(=O)N[C@@H](CC(N)=O)C(=O)N[C@@H](CO)C(=O)N[C@@H](CCSC)C(=O)N[C@@H](CCC(=O)O)C(=O)N[C@@H](CCCN=C(N)N)C(=O)N[C@H](C(=O)N[C@@H](CCC(=O)O)C(=O)N[C@@H](Cc1c[nH]c2ccccc12)C(=O)N[C@@H](CC(C)C)C(=O)N[C@@H](CCCN=C(N)N)C(=O)N[C@@H](CCCCN)C(=O)N[C@@H](CCCCN)C(=O)N[C@@H](CC(C)C)C(=O)N[C@@H](CCC(N)=O)C(=O)N[C@@H](CC(=O)O)C(N)=O)C(C)C [peptide 6, hPTH-(1-30)-NH2] (H-SVSEIQLMHNLGKHLNSMERVEWLRKKLQD-NH2)
EC50 ([1]; read-out: EC50, AC-stimulating activity): 20 nM
EC50 ([2]; ROS cell line, read-out: EC50, AC-stimulating activity): 20 nM
rate of transport of subcutaneously injected peptide to the vascular system ([3]; subcutaneous, 0.8 nmol/100 g of body weight): significantly (p<0.05) reduced rates of transport

CC[C@H](C)[C@H](NC(=O)[C@H](CCC(=O)O)NC(=O)[C@H](CO)NC(=O)[C@@H](NC(=O)[C@@H](N)CO)C(C)C)C(=O)N[C@@H](CCC(N)=O)C(=O)N[C@@H](CC(C)C)C(=O)N[C@@H](CCSC)C(=O)N[C@@H](Cc1c[nH]cn1)C(=O)N[C@@H](CC(N)=O)C(=O)N[C@@H](CC(C)C)C(=O)NCC(=O)N[C@@H](CCCCN)C(=O)N[C@@H](Cc1c[nH]cn1)C(=O)N[C@@H](CC(C)C)C(=O)N[C@@H](CC(N)=O)C(=O)N[C@@H](CO)C(=O)N[C@@H](CCSC)C(=O)N[C@@H](CCC(=O)O)C(=O)N[C@@H](CCCNC(=N)N)C(=O)N[C@H](C(=O)N[C@H]1CCC(=O)NCCCC[C@@H](C(=O)N[C@@H](CC(C)C)C(=O)N[C@@H](CC(C)C)C(=O)N[C@@H](CCC(N)=O)C(=O)N[C@@H](CC(=O)O)C(=O)N[C@H](C(N)=O)C(C)C)NC(=O)[C@H](CCCNC(=N)N)NC(=O)[C@H](CC(C)C)NC(=O)[C@H](Cc2c[nH]c3ccccc23)NC1=O)C(C)C [peptide 3, [Leu^27]cyclo(Glu^22-Lys^26)-hPTH-(1-31)-NH2] (H-SVSEIQLMHNLGKHLNSMERVEWLRKLLQDV-NH2; lactam 22-26; N-terminus assumed)
increase in activity (AC) of cyclization plus Leu27 versus native sequence 1 [1]: ~6 fold
trabecular thickness (bone-building potency) [4]: especially superior activity compared to the linear analogue
trabecular bone volume ([5]; listed as (Leu^27)cyclo(Glu^22-Lys^26)-hPTH-(1-31)NH2): restored the trabecular bone volume to the values in normal control rats
trabecular bone volume ([5]; listed as (Leu^27)cyclo(Glu^22-Lys^26)hPTH-(1-31)-NH2): most effective of the fragments, restoring the bones to the values in normal control rats
hypotensive action, in words ([3]; subcutaneous injection): enhanced hypotensive effects
time for tail artery pressure to fall to its minimum ([3]; subcutaneous injection): much shorter time

[Leu^27]-hPTH-(1-34)-NH2 (SVSEIQLMHNLGKHLNSMERVEWLRKLLQDVHNF-NH2; not fully specified (bridges); UniProt P01270 32-65, looked up, variant K27L) [reference compound]
AC activity in the ROS cell line, comparison in words [2]: more active in stimulating AC activity in the ROS cell line than hPTH-(1-34)-NH2
